The record followed here is patent US6472418B1, “Non-peptide NK1 receptors antagonists” (Warner-Lambert Company, priority 1998, dated 2002).

T1 sequence (P25103 whole entry): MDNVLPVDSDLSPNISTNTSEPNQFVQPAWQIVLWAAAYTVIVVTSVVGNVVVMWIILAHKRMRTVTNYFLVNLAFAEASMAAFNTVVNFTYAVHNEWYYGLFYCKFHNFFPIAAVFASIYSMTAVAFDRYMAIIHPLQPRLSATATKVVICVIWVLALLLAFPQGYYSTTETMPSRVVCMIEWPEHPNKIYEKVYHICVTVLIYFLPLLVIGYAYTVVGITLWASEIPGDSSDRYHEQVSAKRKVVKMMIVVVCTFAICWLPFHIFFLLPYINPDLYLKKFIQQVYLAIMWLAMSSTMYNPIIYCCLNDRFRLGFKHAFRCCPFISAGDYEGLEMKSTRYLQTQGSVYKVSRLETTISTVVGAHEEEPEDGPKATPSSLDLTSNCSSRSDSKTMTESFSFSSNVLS

The first assay concerns the target T1, Human NK1 Receptor (Homo sapiens, UniProt P25103).
T1 construct: endogenous in cells; host or cells: Human lymphoma IM9 cells (whole cells)
Put plainly: In Vitro Human NK1 Receptor Binding Assay ([125I]Bolton-Hunter substance P displacement, IM9 cells). The settings on record: Human lymphoma IM9 cells, [125I]Bolton-Hunter substance P; Table 3, array-synthesis products; read-out: IC50 (nM) hNK1. The essentials:
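Test compounds competed with 0.05-0.1 nM [125I]Bolton-Hunter substance P for binding to intact IM9 cells over 50 min at 21° C, pH 7.4 buffer with MnCl2 and peptidase inhibitors. […] [Sar9, Met(O2)11] substance P gave non-specific binding. Bound counts were measured after filtration and fitted iteratively.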
As a reminder, the IC50 is the concentration that inhibits the measured activity by half. Regarding `O=C(NCc1cc(F)cc(C(F)(F)F)c1)C(Cc1c[nH]c2ccccc12)NCc1cc2ccccc2o1` (stereo not shown) [Example 303, 2-[(Benzofuran-2-ylmethyl)-amino]-N-(3-fluoro-5-trifluoromethyl-benzyl)-3-(1H-indol-3-yl)-propionamide], the IC50 was 17 nM.
Still for that read-out and setting: then `CC(NC(=O)C(Cc1c[nH]c2ccccc12)NCc1cc2ccccc2o1)C1CCCCC1` (stereo not shown) [Example 294, 2-[(Benzofuran-2-ylmethyl)-amino]-N-(1-cyclohexyl-ethyl)-3-(1H-indol-3-yl)-propionamide], with 58 nM; and `O=C(NCc1ccccc1O)C(Cc1c[nH]c2ccccc12)NCc1cc2ccccc2o1` (stereo not shown) [Example 256, 2-[(Benzofuran-2-ylmethyl)-amino]-N-(2-hydroxy-benzyl)-3-(1H-indol-3-yl)-propionamide], with over 10000 nM.

Still in this assay, the particulars now being: Table 4; [125I]Bolton-Hunter substance P displacement, human IM9 cells; read-out: IC50 (nM) hNK1.
`CC(NC(=O)C(C)(Cc1c[nH]c2ccccc12)NCc1ccc2ccccc2n1)c1ccccc1` (stereo not shown) [compound 311, 3-(1H-Indol-3-yl)-2-methyl-N-(1-phenyl-ethyl)-2-[(quinolin-2-ylmethyl)-amino]-propionamide]: the IC50 came to 88 nM.
On the same count and under the same terms, the figure for `CC(C)C=CCC1=CCC(CNC(C)(Cc2c[nH]c3ccccc23)C(=O)NC(C)c2ccccc2)CC1` (stereo not shown) [compound 328, 3-(1H-Indol-3-yl)-2-methyl-2-{[4-(4-methyl-pent-2-enyl)-cyclohex-3-enylmethyl]-amino}-N-(1-phenyl-ethyl)-propionamide] is over 10000 nM.

Staying with this assay, now noted: human NK1 receptor, IM9 cells, [125I]Bolton-Hunter substance P; read-out: IC50 (nM) hNK1.
As to `Cc1ccc(CNC(=O)C(C)(Cc2c[nH]c3ccccc23)NCc2cc3ccccc3o2)cc1` (stereo not shown) [compound 71, 2-[(Benzofuran-2-ylmethyl)-amino]-3-(1H-indol-3-yl)-2-methyl-N-(4-methyl-benzyl)-propionamide], the IC50 came to 144 nM.
The same measure, in the same setting: the figure for `CC(NC(=O)C(C)(Cc1c[nH]c2ccccc12)NCc1cc2ccccc2o1)c1cccc(N)c1` (stereo not shown) [compound 37, N-[1-(3-Amino-phenyl)-ethyl]-2-[(benzofuran-2-ylmethyl)-amino]-3-(1H-indol-3-yl)-2-methyl-propionamide] is 364 nM; for `COc1ccc(CNC(=O)C(C)(Cc2c[nH]c3ccccc23)NCc2cc3ccccc3o2)c(N)c1` (stereo not shown) [compound 188, N-(2-Amino-4-methoxy-benzyl)-2-[(benzofuran-2-ylmethyl)-amino]-3-(1H-indol-3-yl)-2-methyl-propionamide] it is 2280 nM.
As to `CN1Cc2ccccc2CC1CNC(=O)C(C)(Cc1c[nH]c2ccccc12)NCc1cc2ccccc2o1` (stereo not shown) [compound 106, 2-[(Benzofuran-2-ylmethyl)-amino]-3-(1H-indol-3-yl)-2-methyl-N-(2-methyl-1,2,3,4-tetrahydro-isoquinolin-3-ylmethyl)-propionamide], the IC50 turned out to be 4630 nM.
Same read-out and setting: then `CC(Cc1c[nH]c2ccccc12)(NCc1cc2ccccc2o1)C(=O)NCCc1ccc(O)c(O)c1` (stereo not shown) [compound 161, 2-[(Benzofuran-2-ylmethyl)-amino]-N-[2-(3,4-dihydroxy-phenyl)-ethyl]-3-(1H-indol-3-yl)-2-methyl-propionamide], with over 10000 nM; and `CC(Cc1c[nH]c2ccccc12)(NCc1cc2ccccc2o1)C(=O)NCc1cc(Br)ccc1O` (stereo not shown) [compound 170, 2-[(Benzofuran-2-ylmethyl)-amino]-N-(5-bromo-2-hydroxy-benzyl)-3-(1H-indol-3-yl)-2-methyl-propionamide], with 2380 nM; and `CC(Cc1c[nH]c2ccccc12)(NCc1cc2ccccc2o1)C(=O)NC1CCc2ccccc21` (stereo not shown) [compound 158, 2-[(Benzofuran-2-ylmethyl)-amino]-N-indan-1-yl-3-(1H-indol-3-yl)-2-methyl-propionamide], with 2570 nM.
In the case of `CC(Cc1c[nH]c2ccccc12)(NCc1cc2ccccc2o1)C(=O)NC1CCCCC1` (stereo not shown) [compound 26, 2-[(Benzofuran-2-ylmethyl)-amino]-N-cyclohexyl-3-(1H-indol-3-yl)-2-methyl-propionamide], the IC50 is 1010 nM.
